According to patent US8236762B2, “Peptide-cytotoxic conjugates” (IPSEN Pharma S.A.S., priority 2006, dated 2012):
Entries after “also recorded” stand apart in the source; their conditions may differ. Numbered stars: 1 amine (or outer) side, 2 acyl side, 3 side chain; on linkers, the order of the positions; unused ones are H or OH. Bridge positions count the residues as written; N and C are the ends. Square brackets hold non-standard residues; d marks the D form. Peptide text beside a SMILES is read from it. * marks the point of attachment. X1 = CC[C@@]1(O*)C(=O)OCc2c1cc1n(c2=O)Cc2cc3ccccc3nc2-1; Glutaryl = O=C(CCCC(=O)[*:2])[*:1]; AEEA = NCCOCCOCC(=O)O

Assays:
NCI-H345 cells = experiment: In vivo growth assay, NCI-H345 small cell lung carcinoma xenograft in nude mice; design: species or system human; details: female athymic nude mice, qwk×3, i.v.; 165.6, 138, 55.2 mg/kg
Text: FIG. 3: Effects of Example 5C against small cell lung carcinoma tumor model H345 SCLC in female athymic nude mice.
(§1) In other experiments, animals were implanted with human xenografts derived from NCI-H345 cells (human small cell lung carcinoma; […]), A549 cells (non-small cell lung carcinoma), MDA-MB-231 cells (breast cancer) and K562 cells (human chronic myelogenous leukemia; […]) and then subjected to treatment with the compounds of Formula I or II and the appropriate controls as described herein.

NCI-H69 cells = experiment: In vivo growth assay, NCI-H69 small cell lung carcinoma xenograft in nude mice; design: species or system human; details: female athymic nude mice, qwk×3, i.v.
Protocol: The mice were housed in microisolators on a 12-hour light cycle at 22° C. (72° F.) and 40%-60% humidity.
Mice were implanted subcutaneously in the flank with 5×10^6 cells of NCI-H69 cells along with an equal volume of Matrigel® Matrix (BD Biosciences, San Jose, Calif., U.S.A.), a solubilized basement membrane preparation extracted from EHS mouse sarcoma, a tumor rich in ECM proteins. The tumors were monitored initially twice weekly and then daily as the neoplasms reached the desired size of approximately 100 mm^3, (100 mg). When the small cell lung carcinomas attained the desired size in calculated tumor weight, the animals were pair-matched on Day 1 into various treatment groups. The estimated tumor weight was calculated using the formula:
[formula] where w=width and l=length, both measured in mm, of a small cell lung carcinoma.
Animals with tumors were then subject to either no treatment at all, treatment with a vehicle control (either saline or water), treatment with a camptothecin only control (7.5 mg/kg) or treatment with a compound according to Formula I or II as discussed above. All treatments were administered intravenously.

K562 cells = experiment: In vivo growth assay, K562 human chronic myelogenous leukemia xenograft in nude mice; details: female athymic nude mice, qwk×3, i.v.; 165.6, 138, 55.2 mg/kg
Text: FIG. 2: Effects of Example 5C against tumor model human chronic myelogenous leukemia K562 in female athymic nude mice.
as §1

[1] = Half-life determination in human plasma (LC-MS); format: in vitro ADME; details: 37° C.
How it was run: (§2)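 Compound samples of about 50–500 μg/ml were added to 450 μl human or mouse plasma and incubated at 37 °C. Aliquots taken from 0 to 48 h were precipitated with acetonitrile. Supernatants were analysed by LC-MS (positive-mode ESI, C8 column, acetic acid water/acetonitrile gradient).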

hSSTR-1 = target: T1, hSSTR-1 (Homo sapiens, UniProt P30872); experiment: Somatostatin receptor radioligand binding, hSSTR-1 (CHO-K1 membranes); details: read-out: Ki hSSTR1 ± (SEM)
T1 construct: expressed in transfected cells; host or cells: CHO-K1

hSSTR-5 = target: T2, hSSTR-5 (Homo sapiens, UniProt P35346); experiment: Somatostatin receptor radioligand binding, hSSTR-5 (CHO-K1 membranes); details: read-out: Ki hSSTR5 ± (SEM)
T2 construct: expressed in transfected cells; host or cells: CHO-K1
Protocol: (§3) Membranes for in vitro receptor binding assays were obtained by homogenizing (Polytron setting 6, 15 sec) CHO-K1 cells expressing human somatostatin receptor subtypes hSSTR-1, hSSTR-2, hSSTR-3, hSSTR-4 or hSSTR-5 in ice-cold 50 mM Tris-HCl. The homogenized cells were centrifuged twice at 39,000 g for 10 minutes with an intermediate resuspension in fresh buffer. The final pellets were resuspended in 10 mM Tris-HCl to prepare the cell membrane homogenate for use in the binding assay.
(§4) For the hSSTR-1, hSSTR-3, and hSSTR-4 assays, aliquots of the membrane preparations were incubated for 90 minutes at 25° C. with 0.05 nM [^125I-Tyr11]SRIF-14 in 50 mM HEPES (pH 7.4) buffer containing 0.2% BSA and 5 mM MgCl2. The final assay volume was 0.3 ml. For the hSSTR-2 and hSSTR-5 assays, [^125I]-[4-(2-hydroxyethyl)]-1-piperazinylacetyl-D-Phe-c(Cys-Tyr-D-Trp-Lys-Abu-Cys)-Thr-NH2 (0.05 nM) and [^125I]-D-Phe-c(Cys-Tyr-D-Trp-Lys-Val-Cys)-Thr-NH2 were employed as the radioligands, respectively.
(§5) The cell membrane homogenate was incubated with the radioligands for 90 minutes at 25° C. The incubations were terminated by rapid filtration through GF/C filters pre-soaked in 0.3% polyethylenimine using a Brandel® filtration manifold (Gaithersberg, Md., U.S.A.). Each tube and filter was washed three times with 5-ml aliquots of ice-cold buffer. Specific binding was defined as the total radioligand bound minus that bound in the presence of 1000 nM SRIF-14 (for hSSTR-1, hSSTR-3, hSSTR-4 or hSSTR-5), or 1000 nM DPhe-c(Cys-Tyr-D-Trp-Lys-Abu-Cys)-Thr-NH2 for hSSTR-2.

[2] = Half-life determination in mouse plasma (LC-MS); format: in vitro ADME; details: 37° C.
How it was run: as §2

hSSTR-2 = target: T3, hSSTR-2 (Homo sapiens, UniProt P30874); experiment: Somatostatin receptor radioligand binding, hSSTR-2 (CHO-K1 membranes); details: read-out: Ki hSSTR2 ± (SEM)
T3 construct: expressed in transfected cells; host or cells: CHO-K1
Protocol: as §3, §4, §5

hSSTR-4 = target: T4, hSSTR-4 (Homo sapiens, UniProt P31391); experiment: Somatostatin receptor radioligand binding, hSSTR-4 (CHO-K1 membranes); details: read-out: Ki hSSTR4 ± (SEM)
T4 construct: expressed in transfected cells; host or cells: CHO-K1
Protocol: as §3, §4, §5

hSSTR-3 = target: T5, hSSTR-3 (Homo sapiens, UniProt P32745); experiment: Somatostatin receptor radioligand binding, hSSTR-3 (CHO-K1 membranes); details: read-out: Ki hSSTR3 ± (SEM)
T5 construct: expressed in transfected cells; host or cells: CHO-K1
T5 sequence (P32745 whole entry): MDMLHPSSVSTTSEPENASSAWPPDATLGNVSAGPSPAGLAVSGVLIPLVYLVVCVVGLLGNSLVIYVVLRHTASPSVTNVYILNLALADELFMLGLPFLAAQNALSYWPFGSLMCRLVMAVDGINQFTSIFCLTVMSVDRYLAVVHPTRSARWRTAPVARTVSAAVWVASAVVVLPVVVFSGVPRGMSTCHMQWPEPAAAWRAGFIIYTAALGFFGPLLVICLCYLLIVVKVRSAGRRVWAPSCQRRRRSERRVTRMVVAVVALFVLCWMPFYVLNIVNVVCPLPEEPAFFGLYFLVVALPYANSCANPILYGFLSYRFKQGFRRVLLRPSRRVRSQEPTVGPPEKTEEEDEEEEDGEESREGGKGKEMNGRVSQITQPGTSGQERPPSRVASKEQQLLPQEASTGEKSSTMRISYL
Protocol: as §3, §4, §5

T2 sequence (P35346 whole entry): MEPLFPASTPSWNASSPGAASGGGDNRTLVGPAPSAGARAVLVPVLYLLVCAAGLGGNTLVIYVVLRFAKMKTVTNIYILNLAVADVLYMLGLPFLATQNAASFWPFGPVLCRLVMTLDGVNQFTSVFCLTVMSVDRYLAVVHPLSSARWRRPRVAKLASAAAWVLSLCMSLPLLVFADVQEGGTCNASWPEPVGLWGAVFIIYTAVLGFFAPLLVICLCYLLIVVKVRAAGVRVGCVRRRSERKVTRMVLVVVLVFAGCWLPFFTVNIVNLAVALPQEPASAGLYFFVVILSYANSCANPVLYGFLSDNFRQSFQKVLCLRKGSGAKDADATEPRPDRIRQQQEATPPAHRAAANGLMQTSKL
T3 sequence (P30874 whole entry): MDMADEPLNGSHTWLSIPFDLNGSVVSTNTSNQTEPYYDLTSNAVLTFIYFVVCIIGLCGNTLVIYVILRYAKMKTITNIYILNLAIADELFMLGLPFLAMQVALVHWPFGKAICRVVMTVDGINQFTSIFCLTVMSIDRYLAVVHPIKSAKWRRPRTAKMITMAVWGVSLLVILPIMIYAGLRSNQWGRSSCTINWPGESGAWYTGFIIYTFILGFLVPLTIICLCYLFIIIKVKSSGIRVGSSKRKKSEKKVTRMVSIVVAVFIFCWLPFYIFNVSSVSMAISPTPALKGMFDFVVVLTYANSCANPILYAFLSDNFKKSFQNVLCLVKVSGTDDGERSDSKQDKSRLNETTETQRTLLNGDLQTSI
T4 sequence (P31391 whole entry): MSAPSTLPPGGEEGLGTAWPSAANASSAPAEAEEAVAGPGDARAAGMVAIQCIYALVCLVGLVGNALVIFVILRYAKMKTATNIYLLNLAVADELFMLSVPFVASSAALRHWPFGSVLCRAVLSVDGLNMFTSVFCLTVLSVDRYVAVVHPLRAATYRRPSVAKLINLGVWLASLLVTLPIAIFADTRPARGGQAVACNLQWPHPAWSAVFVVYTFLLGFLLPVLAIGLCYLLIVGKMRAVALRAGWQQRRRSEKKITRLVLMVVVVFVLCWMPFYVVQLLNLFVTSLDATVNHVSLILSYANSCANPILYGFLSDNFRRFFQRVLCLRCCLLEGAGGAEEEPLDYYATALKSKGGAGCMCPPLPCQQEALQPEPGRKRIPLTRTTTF
T1 sequence (P30872 whole entry): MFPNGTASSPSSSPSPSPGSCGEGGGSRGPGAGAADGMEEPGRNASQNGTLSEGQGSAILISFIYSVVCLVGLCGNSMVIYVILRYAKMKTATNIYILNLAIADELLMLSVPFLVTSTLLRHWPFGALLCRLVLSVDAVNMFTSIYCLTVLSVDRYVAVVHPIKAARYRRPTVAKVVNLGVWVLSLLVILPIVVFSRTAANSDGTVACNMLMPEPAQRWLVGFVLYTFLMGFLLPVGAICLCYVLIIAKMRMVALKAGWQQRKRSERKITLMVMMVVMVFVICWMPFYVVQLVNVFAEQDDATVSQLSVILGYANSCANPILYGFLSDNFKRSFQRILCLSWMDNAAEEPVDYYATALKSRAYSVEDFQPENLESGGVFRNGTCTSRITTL

Camptothecin-rvD-Asp-Suc-(Doc)4-Aepa-D-Phe-c(Cys-Tyr-D-Trp-Lys-Abu-Cys)-Thr-NH2 [Example 5C]
tumor growth in vivo, H345 small cell lung carcinoma xenograft (NCI-H345 cells): Suppression of tumor growth; also recorded: suppressed growth | tumor growth in vivo, NCI-H69 xenograft (FIG. 1) (NCI-H69 cells): Suppression of tumor growth | tumor growth in vivo, K562 human chronic myelogenous leukemia xenograft (K562 cells): Suppression of tumor growth; also recorded: suppressed growth

CC[C@@]1(OC(=O)CNC(=O)CCCC(=O)NCCOCCOCC(=O)NCCOCCOCC(=O)NCCOCCOCC(=O)NCCOCCOCC(=O)N[C@@H](CCCCN)C(=O)N[C@H](Cc2ccc(O)cc2)C(=O)N[C@H](Cc2ccc(O)cc2)C(=O)N[C@H]2CSSC[C@@H](C(N)=O)NC(=O)[C@H]([C@@H](C)O)NC(=O)[C@H](CCCCN)NC(=O)[C@@H](Cc3c[nH]c4ccccc34)NC(=O)[C@H](Cc3ccccc3)NC(=O)[C@H](Cc3ccccc3)NC2=O)C(=O)OCc2c1cc1n(c2=O)Cc2cc3ccccc3nc2-1 [Example 4, Camptothecin-rvGly-Glut-(Doc)4-Lys-D-Tyr-D-Tyr-c(Cys-Phe-Phe-D-Trp-Lys-Thr-Cys)-NH2] ({X1-Gly-Glutaryl-AEEA-AEEA-AEEA-AEEA}-K[dY][dY]CFF[dW]KTC-NH2; disulfide 4-10)
half-life [1]: 3.2 h | Ki (hSSTR-1): ≥ 1000 nM | Ki (hSSTR-5): 481 nM | half-life [2]: 4.4 h | Ki (hSSTR-2): 9.38 nM | Ki (hSSTR-4): ≥ 1000 nM | Ki (hSSTR-3): ≥ 1000 nM

Camptothecin-rvD-Asp-Suc-(Doc)4-Aepa-D-Phe-c(Cys-Tyr-D-Trp-Lys-Abu-Cys)-Thr-NH2 Camptothecin-rvAsp-Suc-(Doc)4-Aepa-D-Phe-c(Cys-Tyr-D-Trp-Lys-Abu-Cys)-Thr-NH2 [Example 5B]
tumor growth in vivo, NCI-H69 xenograft (FIG. 1) (NCI-H69 cells): Suppression of tumor growth
